The results in this text go back to US20230226066A1, “COMPOUNDS FOR THE TREATMENT OF VIRAL INFECTIONS” (MERCK PATENT GMBH, priority 2020, published 2023).

The structures appear in SMILES notation.

Assay type in all cases: cell-based
One data set has as its system SARS-CoV2/ZG/297-20. The note with it: MOI 0.05; 120 hours observation; Compound 1 at 1-81 μM, Compound 2 at 9-81 μM; compared to uninfected and infected control cells; FIGS. 1 and 2.
Data set [1] can be described thus: Cytotoxic effect on Vero cells, assessed in parallel. The note with it: African green monkey, FIG. 5, read-out: half maximal cytotoxic concentration (CC50), viability of Vero cells. As for the experimental part:
(§1) The antiviral effect of Compounds is evaluated against Dengue virus serotype 2 (DENV-2) using cytopathic effect (CPE) inhibition assay. Cytotoxic effect was assessed in parallel.
(§2) Five-fold serial dilutions of Compound 2 were prepared at a starting concentration of 50 μM and added in triplicate to 1.00E+04 Vero cells seeded in conical 96-well plates one day prior and incubated at 37° C. and 5% CO2 for one-hour. During the incubation time, viruses were thawed and inoculum prepared in infection medium. Stock and inoculum were maintained in wet ice at all time. Virus was then added to the Compound 2 dilutions/cells (1:1) and plates were incubated at 37° C. and 5% CO2 for 3-5 days.

In data set [2] the test system is Dengue virus serotype 2 (DENV-2). Put plainly: Antiviral testing against Dengue virus serotype 2 in Vero cells (CPE inhibition assay, immunostaining). The note with it: DENV2, Vero, read-out: half maximal effective concentration (EC50), viral replication. As for the experimental part:
as §1, §2
Cells were immunostained. Then, medium was removed, cells were washed with PBS, fixed with cold 80%/20% (v/v) ethanol/methanol and incubated at −20° C. for 20 minutes. After removal of fixative the plates were air-dried, washed and stained with specific Ab #1, washed and stained with Ab #2-HRP conjugated. Then, cells were washed, 3,3′,5,5′-tetramethylbenzidine (TMB) substrate was added followed by addition of stop solution. The supernatant was transferred to a clean plate and signal read at 450 nm.

Regarding `Nc1nn2cc(F)cnc2c1C(=O)Nc1cncc(F)c1N1CCC(C(=O)N2CCN(C3COC3)CC2)CC1` [Compound 1, 2-Amino-6-fluoro-pyrazolo[1,5-a]pyrimidine-3-carboxylic acid [5′-fluoro-4-(4-oxetan-3-yl-piperazine-1-carbonyl)-3,4,5,6-tetrahydro-2H-[1,4′]bipyridinyl-3′-yl]-amide], the “confluence of Calu-3 cells infected with SARS-CoV-2” value in the data set with SARS-CoV2/ZG/297-20 is given as “significant improvement of the confluence of the cells”.

Regarding `Cn1cncc1-c1c(F)cncc1NC(=O)c1c(N)nn2cc(F)cnc12` [Compound 2, 2-Amino-6-fluoro-N-[5-fluoro-4-(1-methyl-1H-imidazol-5-yl)pyridin-3-yl]pyrazolo [1,5-a]pyrimidine-3-carboxamide], the CC50 in data set [1] is 6.8 µM. The “confluence of Calu-3 cells infected with SARS-CoV-2” value in the data set with SARS-CoV2/ZG/297-20 was “significant improvement of the confluence of the cells”. Besides, the EC50 in data set [2] came out at 0.46 µM.
